Results reported in the NIST ThermoML archive (doi:10.1021/acs.jced.8b00684).
Numbers after ± are expanded uncertainties.

Assays:
[1] = 100 kPa, Liquid, Falling or rolling sphere viscometry
[2] = xn = mol fraction of the nth substance listed; settings: 100 kPa, Liquid, Falling or rolling sphere viscometry, x2 = 0

Row | SMILES | viscosity ([1]; 293.15 K) [mPa·s] | viscosity ([1]; 298.15 K) [mPa·s] | viscosity ([1]; 303.15 K) [mPa·s] | viscosity ([1]; 313.15 K) [mPa·s] | viscosity ([1]; 323.15 K) [mPa·s] | viscosity ([1]; 333.15 K) [mPa·s] | viscosity ([1]; 343.15 K) [mPa·s] | viscosity ([1]; 353.15 K) [mPa·s] | viscosity ([2]; 293.15 K) [mPa·s] | viscosity ([2]; 298.15 K) [mPa·s] | viscosity ([2]; 303.15 K) [mPa·s] | viscosity ([2]; 313.15 K) [mPa·s] | viscosity ([2]; 323.15 K) [mPa·s] | viscosity ([2]; 333.15 K) [mPa·s] | viscosity ([2]; 343.15 K) [mPa·s] | viscosity ([2]; 353.15 K) [mPa·s]
1 | CCCCCCn1cc[n+](C)c1.F[B-](F)(F)F [1-hexyl-3-methylimidazolium tetrafluoroborate] | 293 ± 20 | 216 ± 13 | 163 ± 9 | 96.7 ± 4.3 | 61.8 ± 2.5 | 41.9 ± 1.7 | 29.5 ± 1.2 | 21.7 ± 0.9 |  |  |  |  |  |  |  | 
2 | CC#N [acetonitrile] | 0.39 ± 0.02 | 0.37 ± 0.02 | 0.35 ± 0.02 | 0.33 ± 0.01 | 0.3 ± 0.01 | 0.28 ± 0.01 | 0.26 ± 0.01 |  |  |  |  |  |  |  |  | 
3 | CC#N [acetonitrile] + CCCCCCn1cc[n+](C)c1.F[B-](F)(F)F |  |  |  |  |  |  |  |  | 0.39 ± 0.02 | 0.37 ± 0.02 | 0.35 ± 0.02 | 0.33 ± 0.01 | 0.3 ± 0.01 | 0.28 ± 0.01 | 0.26 ± 0.01 | 
4 | C[S+](C)[O-] [dimethyl sulfoxide] | 2.21 ± 0.09 | 2.01 ± 0.08 | 1.84 ± 0.07 | 1.56 ± 0.06 | 1.34 ± 0.05 | 1.17 ± 0.05 | 1.03 ± 0.04 | 0.92 ± 0.04 |  |  |  |  |  |  |  | 
5 | C[S+](C)[O-] [dimethyl sulfoxide] + CCCCCCn1cc[n+](C)c1.F[B-](F)(F)F |  |  |  |  |  |  |  |  | 2.21 ± 0.09 | 2.01 ± 0.08 | 1.84 ± 0.07 | 1.56 ± 0.06 | 1.34 ± 0.05 | 1.17 ± 0.05 | 1.03 ± 0.04 | 0.92 ± 0.04
